Tested on: CD33 CAR T cells
Test: Inhibitor treatment during ex vivo culture
Assay type: cell-based, human
Conditions: for total CD8^+ CAR T cells / T cell expansion: 4 days of inhibitor treatment; for proliferating CD8^+ cells that remained CCR7^+: CellTrace Violet, control T cells about 41%
Method: Inhibitor treatment during ex vivo culture: CD33 CAR or control transduced T cells were labeled with CellTrace Violet (ThermoFisher) 5 days after their initial activation. […] Cells were analyzed 4 days later by flow cytometry.
Day 1: Separated PBMCs from apheresis ring of donor. Enriched human T cells by Pan T cell negative selection kit. Activate human T cells by anti-human CD3 and anti-human CD28 (1 ug/ml) coated plates overnight.
Day2: Transduced human T cells with anti-CD33 CAR gamma-retrovirus or MSCV control by retronectin coated non-tissue culture plate.
Day3: Resuspend the cells and plate them in the IL-2 RPMI medium in the tissue culture plate.
100U/ml IL-2 was added to cultures every 2 days. Cells were analyzed 4 days later by flow Cytometry.

[1] = 4 days, LY294002 10 μM, IC87114 10 μM, API-2 1 μM, rapamycin 50 nM, PP242 1 μM, DCA 10 mM, vs untreated CD33 CAR T cells

SMILES | total CD8^+ CAR T cells / T cell expansion | percent of CD8^+ TN and TCM cells [1] | percentage of CCR7^+ cells among undivided CD8^+ cells (4 days) | CD8^+ TEM or TEFF cell numbers (4 days, 10 μM) | number of CD8^+ TN and TCM cells (4 days, same concentrations, vs untreated CD33 CAR T cells) | proliferating CD8^+ cells that remained CCR7^+ (4 days) | CD8^+ TEM or TEFF cell percent (Example 4: 4 days, different concentrations) | percent of CD8^+ TN and TCM cells (Example 4: 4 days, different concentrations, vs untreated CD33 CAR T cells) | number of CD8^+ TEFF cells (4 days, rapamycin 50 nM, PP242 1 μM)
O=C(O)C(Cl)Cl [DCA, dichloroacetic acid] | significantly inhibited T cell expansion | increased | – | – | – | – | – | – | –
Cc1ccccc1-n1c(Cn2cnc3c(N)ncnc32)nc2cccc(C)c2c1=O [IC87114] | – | increased significantly | did not alter | did not significantly alter | increased significantly | ~33% | significant decrease | increased significantly | –
O=c1cc(N2CCOCC2)oc2c(-c3ccccc3)cccc12 [LY294002] | – | – | – | – | – | about 43% | – | – | –
CC(C)n1nc(-c2cc3cc(O)ccc3[nH]2)c2c(N)ncnc21 [PP242] | substantial decrease | no detectable effect | – | – | – | – | – | – | decreased

Source: US12053490B2, “Methods and compositions for treating CD33+ cancers and improving in vivo persistence of chimeric antigen receptor T cells” (ST. JUDE CHILDREN'S RESEARCH HOSPITAL, INC., priority 2017, dated 2024)
